Series [1] concerns the target T1, ATP-dependent translocase ABCB1 (Homo sapiens, UniProt P08183). Put plainly: TP_TRANSPORTER: transepithelial transport (basal to apical) in MDR1-expressing LLC-PK1 cells. It counts as functional, cell-based. Particulars: pig.
The target in series [2] is T2, ABCB1 (P-glycoprotein) (Homo sapiens, UniProt P08183). Kind of series: TP_TRANSPORTER: inhibition of Digoxin transepithelial transport (basal to apical)(Digoxin: 5 uM, 6beta-hydroxycortisol: 100 uM) in Caco-2 cells. Particulars: Caco-2, probe digoxin. It counts as functional, cell-based.
Series [3] has as its target T2, ABCB1 (P-glycoprotein). Kind of series: TP_TRANSPORTER: inhibition of Digoxin transepithelial transport (basal to apical)(Digoxin: 5 uM, Terfenadine: 10 uM) in Caco-2 cells. Particulars: Caco-2, probe digoxin. Format: functional, cell-based.
Series [4] concerns the target T1, ATP-dependent translocase ABCB1. Kind of series: TP_TRANSPORTER: inhibition of Digoxin transepithelial transport (basal to apical)(Digoxin: 5 uM, 1-hydroxymidazolam: 100 uM) in Caco-2 cells. Format: functional, cell-based. The settings on record: caco-2, 100 µM.
Series [5] concerns the target T2, ABCB1 (P-glycoprotein). Put plainly: TP_TRANSPORTER: inhibition of Digoxin transepithelial transport (basal to apical)(Digoxin: 5 uM, Midazolam: 100 uM) in Caco-2 cells. The settings on record: Caco-2, probe digoxin. Format: functional, cell-based. A general note: Caco-2 monolayers are a common model of the intestinal barrier.
The target of series [6] is T3, ATP-dependent translocase ABCB1 (Mus musculus, UniProt P21447). Put plainly: TP_TRANSPORTER: no change in plasma concentration in mdr1a(-/-) mouse. Format: functional, organism-based. The settings on record: in vivo.
Series [7] addresses T3, ATP-dependent translocase ABCB1. Put plainly: TP_TRANSPORTER: no change in liver concentration in mdr1a(-/-) mouse. Format: functional, organism-based. The settings on record: in vivo.
Series [8] shares this target. Put plainly: TP_TRANSPORTER: no change in kidney concentration in mdr1a(-/-) mouse. Format: functional, organism-based. The settings on record: in vivo.
Series [9] addresses T2, ABCB1 (P-glycoprotein). Kind of series: TP_TRANSPORTER: inhibition of Digoxin transepithelial transport (basal to apical)(Digoxin: 5 uM, Tamoxifen: 100 uM) in Caco-2 cells. Format: functional, cell-based. Particulars: Caco-2, probe digoxin.
The target of series [10] is T2, ABCB1 (P-glycoprotein). Kind of series: TP_TRANSPORTER: inhibition of Digoxin transepithelial transport (basal to apical) (Digoxin: 5 uM, Lovastatin: 100 uM) in Caco-2 cells. Particulars: Caco-2, probe digoxin. It counts as functional, cell-based.
Series [11] has as its target T2, ABCB1 (P-glycoprotein). Kind of series: TP_TRANSPORTER: inhibition of Digoxin transepithelial transport (basal to apical) (Digoxin: 5 uM, Erythromycin: 100 uM) in Caco-2 cells. It counts as functional, cell-based. Particulars: Caco-2, probe digoxin.
The target of series [12] is T2, ABCB1 (P-glycoprotein). Put plainly: TP_TRANSPORTER: inhibition of Digoxin transepithelial transport (basal to apical) (Digoxin: 5 uM, S-mephenytoin: 100 uM) in Caco-2 cells. It counts as functional, cell-based. Particulars: Caco-2, probe digoxin.

What is called inhibition is the change of the read-out against control, counted positive when it falls.

T1 sequence (P08183 whole entry): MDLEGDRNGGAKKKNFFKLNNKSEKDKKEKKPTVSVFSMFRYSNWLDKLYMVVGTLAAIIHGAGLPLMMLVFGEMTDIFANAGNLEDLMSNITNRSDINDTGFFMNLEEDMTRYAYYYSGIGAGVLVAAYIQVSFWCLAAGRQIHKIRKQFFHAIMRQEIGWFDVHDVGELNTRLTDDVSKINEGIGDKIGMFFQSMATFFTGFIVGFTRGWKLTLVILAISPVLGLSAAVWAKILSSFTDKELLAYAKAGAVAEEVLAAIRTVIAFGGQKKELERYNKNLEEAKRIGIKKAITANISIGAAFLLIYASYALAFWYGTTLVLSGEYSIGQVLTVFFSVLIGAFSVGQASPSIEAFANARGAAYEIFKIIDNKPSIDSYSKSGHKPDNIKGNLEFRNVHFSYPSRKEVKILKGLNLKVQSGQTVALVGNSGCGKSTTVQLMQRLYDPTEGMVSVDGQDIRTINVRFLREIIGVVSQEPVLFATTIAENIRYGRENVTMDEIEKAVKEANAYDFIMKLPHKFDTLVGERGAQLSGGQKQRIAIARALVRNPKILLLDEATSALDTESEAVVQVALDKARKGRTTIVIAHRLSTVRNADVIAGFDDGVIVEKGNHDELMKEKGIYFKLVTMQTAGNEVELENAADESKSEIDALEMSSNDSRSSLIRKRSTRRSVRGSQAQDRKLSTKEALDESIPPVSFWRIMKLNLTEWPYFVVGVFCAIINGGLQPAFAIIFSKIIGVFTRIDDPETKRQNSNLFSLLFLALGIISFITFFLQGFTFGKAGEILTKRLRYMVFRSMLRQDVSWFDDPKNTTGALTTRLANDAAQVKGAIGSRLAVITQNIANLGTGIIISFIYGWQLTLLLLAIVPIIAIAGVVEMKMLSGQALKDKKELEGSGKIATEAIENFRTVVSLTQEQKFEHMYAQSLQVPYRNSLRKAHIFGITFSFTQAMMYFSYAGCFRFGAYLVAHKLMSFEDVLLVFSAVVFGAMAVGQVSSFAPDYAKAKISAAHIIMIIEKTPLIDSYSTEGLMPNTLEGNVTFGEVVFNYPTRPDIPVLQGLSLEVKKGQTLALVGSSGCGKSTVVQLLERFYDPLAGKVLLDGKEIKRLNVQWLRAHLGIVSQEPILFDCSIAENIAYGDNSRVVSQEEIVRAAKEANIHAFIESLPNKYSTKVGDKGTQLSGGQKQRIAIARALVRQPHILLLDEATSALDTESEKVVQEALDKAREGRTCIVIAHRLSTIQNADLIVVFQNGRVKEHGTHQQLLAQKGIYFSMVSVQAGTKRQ
T2 sequence (P08183 whole entry): as above
T3 sequence (P21447 whole entry): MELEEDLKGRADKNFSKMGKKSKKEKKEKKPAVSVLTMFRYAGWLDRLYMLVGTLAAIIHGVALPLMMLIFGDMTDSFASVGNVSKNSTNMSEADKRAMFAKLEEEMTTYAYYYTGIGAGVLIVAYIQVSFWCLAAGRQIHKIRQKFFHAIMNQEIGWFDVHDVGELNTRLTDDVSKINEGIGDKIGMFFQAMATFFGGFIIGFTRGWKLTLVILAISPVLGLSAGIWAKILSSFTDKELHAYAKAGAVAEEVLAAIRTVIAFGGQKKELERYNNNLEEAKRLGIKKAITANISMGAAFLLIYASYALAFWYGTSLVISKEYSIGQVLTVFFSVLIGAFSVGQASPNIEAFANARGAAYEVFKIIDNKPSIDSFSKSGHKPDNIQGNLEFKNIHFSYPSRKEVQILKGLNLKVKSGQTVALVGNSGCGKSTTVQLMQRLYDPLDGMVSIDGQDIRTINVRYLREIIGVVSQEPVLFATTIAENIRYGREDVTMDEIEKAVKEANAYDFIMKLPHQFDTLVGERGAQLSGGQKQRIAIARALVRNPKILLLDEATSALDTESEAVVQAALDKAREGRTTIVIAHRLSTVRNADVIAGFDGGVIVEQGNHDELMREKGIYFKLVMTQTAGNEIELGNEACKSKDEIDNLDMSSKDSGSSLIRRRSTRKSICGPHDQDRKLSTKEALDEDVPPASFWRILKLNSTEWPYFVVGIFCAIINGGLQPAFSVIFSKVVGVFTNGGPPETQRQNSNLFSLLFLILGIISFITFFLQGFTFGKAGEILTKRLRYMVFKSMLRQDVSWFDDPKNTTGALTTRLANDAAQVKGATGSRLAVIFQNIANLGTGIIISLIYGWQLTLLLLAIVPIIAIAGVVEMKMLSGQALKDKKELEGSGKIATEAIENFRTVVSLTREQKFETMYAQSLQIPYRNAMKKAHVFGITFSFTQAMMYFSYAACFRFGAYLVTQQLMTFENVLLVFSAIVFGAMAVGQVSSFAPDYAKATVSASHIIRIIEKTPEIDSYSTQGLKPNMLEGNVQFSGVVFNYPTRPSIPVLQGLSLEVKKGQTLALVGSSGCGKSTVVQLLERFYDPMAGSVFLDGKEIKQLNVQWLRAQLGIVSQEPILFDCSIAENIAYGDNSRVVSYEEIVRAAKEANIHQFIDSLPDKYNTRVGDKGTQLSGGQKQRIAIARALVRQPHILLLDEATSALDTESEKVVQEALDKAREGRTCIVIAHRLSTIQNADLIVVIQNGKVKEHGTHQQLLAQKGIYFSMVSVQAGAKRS

As for `N=C(N)N1CCc2ccccc2C1` [DEBRISOQUIN], the Activity result in series [1] was “substrate [+]”.
Take `C[C@]12CCC(=O)C=C1[C@H](O)C[C@@H]1[C@@H]2[C@@H](O)C[C@@]2(C)[C@H]1CC[C@]2(O)C(=O)CO`: the inhibition at 100 µM against ABCB1 (P-glycoprotein) [2] turned out to be 57%.
Turning to `CC(C)(C)c1ccc(C(O)CCCN2CCC(C(O)(c3ccccc3)c3ccccc3)CC2)cc1` (centres undefined) [TERFENADINE], the inhibition at 10 µM against ABCB1 (P-glycoprotein) [3] came out at 112%.
`OCc1ncc2n1-c1ccc(Cl)cc1C(c1ccccc1F)=NC2` [ALPHA-HYDROXY-MIDAZOLAM] displayed an Activity in series [4] of 63.
Turning to `COC(=O)C1=C(C)NC(C)=C(C(=O)OC)C1c1ccccc1[N+](=O)[O-]` [NIFEDIPINE], the Activity result in [1] is “is not a substrate [-]”.
In the case of `Cc1ncc2n1-c1ccc(Cl)cc1C(c1ccccc1F)=NC2` [MIDAZOLAM], the inhibition at 100 µM at ABCB1 (P-glycoprotein) [5] was found to be 74%. The Activity result in series [1] was “is not a substrate [-]”.
In the case of IVERMECTIN, the Activity result in [6], in series [7] and in series [8] was “is not a substrate [-]” throughout.
For `CC/C(=C(\c1ccccc1)c1ccc(OCCN(C)C)cc1)c1ccccc1` [TAMOXIFEN], the inhibition at 100 µM on ABCB1 (P-glycoprotein) [9] turned out to be 86%.
Turning to `CC[C@H](C)C(=O)O[C@H]1C[C@@H](C)C=C2C=C[C@H](C)[C@H](CC[C@@H]3C[C@@H](O)CC(=O)O3)[C@H]21` [LOVASTATIN], the inhibition at 100 µM at ABCB1 (P-glycoprotein) [10] was 65%.
Regarding `CC[C@H]1OC(=O)[C@H](C)[C@@H](O[C@H]2C[C@@](C)(OC)[C@@H](O)[C@H](C)O2)[C@H](C)[C@@H](O[C@@H]2O[C@H](C)C[C@H](N(C)C)[C@H]2O)[C@](C)(O)C[C@@H](C)C(=O)[C@H](C)[C@@H](O)[C@]1(C)O` [ERYTHROMYCIN], the inhibition at 100 µM against ABCB1 (P-glycoprotein) [11] amounted to 101%.
For the molecule `CC[C@@]1(c2ccccc2)NC(=O)N(C)C1=O`, the inhibition at 100 µM on ABCB1 (P-glycoprotein) [12] is 42%.

Values taken from ChEMBL document CHEMBL2073809, “Interrelationship between substrates and inhibitors of human CYP3A and P-glycoprotein” (Pharm Res, 1999).
